Results on 2 compounds are retold here after ChEMBL document CHEMBL1641386, “Lagunamides A and B: cytotoxic and antimalarial cyclodepsipeptides from the marine cyanobacterium Lyngbya majuscula” (J Nat Prod, 2010).

In one test the test system is Plasmodium falciparum. Kind of test: Antimalarial activity against drug-sensitive Plasmodium falciparum NF54 infected in human erythrocytes after 48 hrs by Liquid scintillation counter. The format is functional, organism-based. The note with it: NF54, 48 h.
Another test deals with P388. Kind of test: Cytotoxicity against mouse P388 cells after 72 hrs by MTT assay. The format is functional, cell-based. The following applies: P388, 72 h.
Another test deals with Pseudomonas aeruginosa. The experiment in a line: Anti-Swarming activity against Pseudomonas aeruginosa PA01 at 100 ppm after 72 hrs. Type of test: functional.

The IC50 is the midpoint of a concentration-inhibition curve. Turning to `CC[C@@H](C)[C@@H]1NC(=O)CN(C)C(=O)[C@@H](Cc2ccccc2)N(C)C(=O)[C@H](C)NC(=O)[C@@H]([C@@H](C)CC)OC(=O)/C(C)=C/C[C@H](O)[C@H](C)[C@H]([C@@H](C)CC)OC(=O)[C@H](C)N(C)C1=O` [LAGUNAMIDE A], the figures for the concentration for half-maximal inhibition (IC50) in the test with Plasmodium falciparum and with P388 were 190 nM and 6.4 nM, respectively. In the test with Pseudomonas aeruginosa, the Activity is recorded as 62%.

`C/C=C(\C)[C@@H]1OC(=O)[C@H](C)N(C)C(=O)[C@H]([C@H](C)CC)NC(=O)CN(C)C(=O)[C@@H](Cc2ccccc2)N(C)C(=O)[C@H](C)NC(=O)[C@@H]([C@@H](C)CC)OC(=O)/C(C)=C/C[C@H](O)[C@@H]1C` [LAGUNAMIDE B]: the IC50 with Plasmodium falciparum came out at 910 nM; with P388 it was 20.5 nM. Besides, the Activity in the test with Pseudomonas aeruginosa is 56%.
